A short description of this series: Human HepG2 cell viability assay in 384 well format. The arrangement: dose 125 nL, time 70.5 hour; concentration not given beside the values. The note with it: HepG2 cells, read-out: Inhibition. In kind it is toxicity, cell-based.

The record followed here is ChEMBL document CHEMBL3507680, “University of Dundee, Gates Library screen for HepG2 cell viability”.

`CS(=O)(=O)C1=C(O)C(=O)N(c2ccccc2)C1c1ccccc1` (configuration not stated): the cytotoxicity at 70.5 h is -4.58%.
As for `Cc1ccc2c(c1)c(C)cc(=O)n2CCC(=O)O`, the cytotoxicity at 70.5 h is -6.14%.
Under `CC(C(=O)NN1CCOCC1)n1nc(C(F)(F)F)c(Cl)c1C1CC1` (configuration not stated) stands 6.2%; under `N#Cc1cc(C#N)c(SCC(=O)Nc2ccc(F)cc2)nc1N`, 5.41%; under `CCC(=O)c1ccc(Br)cc1NN1c2cc(Br)ccc2C(=O)C1(C)OC` (configuration not stated), 13.3%.
Under `CCC1=NN2C(=N)/C(=C/c3cccc(Cl)c3)C(=O)N=C2S1` stands -5.39%.
Under `CN(C)c1nc2n(c(=O)n1)CCN2C(=O)Nc1cccc(Cl)c1` stands -9.23%; under `CCOC(=O)Cn1cnc2nc3n(c2c1=O)CCC3`, -2.23%; under `OC(CN1CCOCC1)c1ccc(Br)cc1` (configuration not stated), -4.1%.
For the molecule `CCc1oc2ccc(NS(C)(=O)=O)cc2c1C(=O)OC`, the cytotoxicity at 70.5 h came to 0.398%.
Under `CCS(=O)(=O)Nc1ccc2oc(C)c(C(=O)OC)c2c1` stands -15%; under `CC/N=c1\c(NC(=O)C(C)(C)C)c(O)oc2ccccc12`, 22.9%; under `CCOC(=O)c1sc(NC(=O)COC)c(C#N)c1C`, 28.6%.
Under `COCC(=O)NC[C@H]1CC[C@H](c2ccnc3ncnn32)CC1` stands -8.99%; under `Cc1cccc(NC(=O)c2cncc(C3CCNCC3)n2)n1`, -5.87%.
Under `NC(=O)c1cn[nH]c1C1CCCN1C(=O)c1ccccc1` (configuration not stated) stands -5.37%.
On to `c1nnc(Nc2cncc(C3CCCN3CC3CC3)n2)s1` (configuration not stated), for which the cytotoxicity at 70.5 h amounted to 0.394%.
`Cc1nn(C)cc1NC(=O)CN1CCC(Oc2cnccn2)CC1`: the cytotoxicity at 70.5 h was -4.13%.
As to `Cc1n[nH]c(C)c1S(=O)(=O)N1CCC(Oc2cnccn2)CC1`, the cytotoxicity at 70.5 h is -2.37%.
`Cc1ccccc1OC1CCN(S(=O)(=O)c2c(C)n[nH]c2C)CC1`: the cytotoxicity at 70.5 h was -6.57%.
Under `CC(=O)N1CCC(C)(c2nc(C)no2)CC1` stands -5%; under `CN1CCC(c2[nH]ncc2S(C)(=O)=O)CC1`, -7.29%; under `Cc1nc2c(c(Nc3ccccn3)n1)CN(S(C)(=O)=O)CC2`, 23.4%.
As to `O=C(NCC1(O)COCCN(Cc2ccc(O)cc2)C1)c1cnccn1` (configuration not stated), the cytotoxicity at 70.5 h is -9.12%.
With `Cc1cc(C)nc(N2CC=C[C@H]2C(=O)NCc2ccc3c(c2)OCO3)n1` the figure was -3.34%; with `c1cc(CCNc2ncc(-c3cnccn3)c(C3CC3)n2)ccn1`, -5.03%; with `Cc1c(C2=NS(=O)(=O)N(C)C(C(=O)Nc3ccc(Br)cc3)=C2)cnn1C`, 22.2%.
With `Cc1nn(C)cc1C1=NS(=O)(=O)N(C)C(C(=O)Nc2ccc(Br)cc2)=C1` the figure was 0.0552%; with `Cc1cc(-c2ccc(=O)n(C3CCN(C(=O)C4CCC4)CC3)n2)c(C)o1`, 1.9%.
Turning to `CCCS(=O)(=O)N1CCC(n2nc(-c3cc(C)oc3C)ccc2=O)CC1`, the cytotoxicity at 70.5 h turned out to be 8.97%.
Under `O=C(O)[C@@H]1CCN(C(=O)c2cscn2)[C@@H]1c1ccc(F)cc1` stands -2.87%; under `Cc1nccn1-c1ccc(CN2CC3C[C@@H](O)CN3C[C@@H]2C)cc1` (some centres not stated), -7.07%; under `CNC(=O)c1cn[nH]c1C1CCCN1C(=O)c1ccccn1` (configuration not stated), -1.79%.
Under `CN1CCOC(c2cncc(CCC(=O)N(C)C)n2)C1` (configuration not stated) stands -2.29%; under `CNc1ncc(CN2CCCC2c2[nH]ncc2C(=O)N(C)C)cn1` (configuration not stated), -3.21%; under `CC(C)c1ncc(CN2CCC(c3n[nH]cc3C(=O)N(C)C)C2)cn1` (configuration not stated), -2.3%.
With `Cc1cc(C)nc(C2CCCN2C(=O)c2cnccn2)n1` (configuration not stated) the figure was -2.97%.
On to `CN1CCOC(c2cncc(CCC(N)=O)n2)C1` (configuration not stated), for which the cytotoxicity at 70.5 h is -3.04%.
Consider `Cc1cc(-c2cccnc2)nc(C2CCCN2S(C)(=O)=O)n1` (configuration not stated), for which the cytotoxicity at 70.5 h was -3.42%.
Under `CCCC(=O)N1CCC(c2cc[nH]n2)C1` (configuration not stated) stands 0.0603%.
In the case of `CC(C)c1nccn1-c1nccnc1C1CCCN1Cc1cccnc1` (configuration not stated), the cytotoxicity at 70.5 h was -1.81%.
For `CCn1ncc(S(=O)(=O)N2CCCC3(CC=CNC3=O)C2)c1C` (configuration not stated), the cytotoxicity at 70.5 h is -1.6%.
With `Cc1ccc(C)c2c(C)c(C(=O)NCC[S+](C)[O-])[nH]c12` (configuration not stated) the figure was -4.15%.
With `C[C@@H]1CN2C[C@H](O)CC2CN1Cc1ccc2nccnc2c1` (some centres not stated) the figure was 35.6%; with `COc1ccccc1C1(O)CCCN(C(=O)c2ccnn2C(C)C)C1` (configuration not stated), -1.5%.
For the molecule `CCN1CCCC1CNCc1cc2cc3c(cc2[nH]c1=O)OCCO3` (configuration not stated), the cytotoxicity at 70.5 h was -1.38%.
Under `Cc1nc(O)c2c(n1)CCN(Cc1cc(C)sc1C)CC2` stands 23.6%; under `CC(C)c1nc(O)c2nnn(C[C@@H]3CCCN(Cc4cccs4)C3)c2n1`, 1.47%; under `CCN1CCCC1CNCc1cc2cc(C)c(C)cc2[nH]c1=O` (configuration not stated), -2.24%.
Under `CCN1CCCC1CNCc1cc2cc(OC)c(OC)cc2[nH]c1=O` (configuration not stated) stands -1.47%; under `C[C@H]1CN2C[C@H](O)CC2CN1Cc1ccncc1` (some centres not stated), -1.34%.
On to `COc1cccc(OC)c1CNC(Cc1ccsc1)c1ccc(C)cn1` (configuration not stated), for which the cytotoxicity at 70.5 h was 4.63%.
Take `NC1(CN2CCCCC2)CCCCC1`: the cytotoxicity at 70.5 h is -3.49%.
With `Cc1cc(N(C)C)nc(C2(C)CCNCC2)n1` the figure was 46.3%; with `Cc1nc(C2CCCN(S(C)(=O)=O)C2)sc1Br` (configuration not stated), -0.507%; with `CC(=O)NCC(=O)N1CCOC(c2cccc(N)n2)C1` (configuration not stated), 15.3%.
With `CN(C)C(=O)C1CCCN(C(=O)c2ccccc2-n2cc(CN)cn2)C1` (configuration not stated), the cytotoxicity at 70.5 h amounted to 48.5%.
In the case of `NCC(=O)N1CCCC(O)(CN2CCN(c3ccccc3)CC2)CC1` (configuration not stated), the cytotoxicity at 70.5 h came to 4.71%.
Under `Nc1nccnc1CC1CCCN(Cc2cccc3[nH]ccc23)C1` (configuration not stated) stands 0.122%; under `O=C(N[C@@H]1CC[C@@H](N2CCCC2)[C@@H]1O)c1cc2ccccc2[nH]1`, -5.76%.
With `CC(=O)N1CCCC1c1nc(N(C)C)ncc1-c1ccccc1` (configuration not stated), the cytotoxicity at 70.5 h came out at 23.2%.
Under `CNc1ccc(CC2CCCN(Cc3c[nH]cn3)C2)nn1` (configuration not stated) stands -3.24%; under `Cc1cncnc1C1CCN(CC2CC2)CC1`, 19.8%; under `Cc1cc(N2CCC(Cc3cnccn3)C2)ncn1` (configuration not stated), -7.8%.
Under `CC(=O)N1CCOC(c2cncc(CCC(N)=O)n2)C1` (configuration not stated) stands 7.13%.
For `Cc1ccccc1NC(=O)c1cncc(C2CCNCC2)n1`, the cytotoxicity at 70.5 h was -4.64%.
With `CC1(C)Cc2cc(-c3cncn3CCNC3CCS(=O)(=O)C3)ccc2O1` (configuration not stated) the figure was -0.723%.
Take `Cc1cc(C)nc(N2CC=C[C@@H]2C(=O)NCc2ccc3c(c2)OCO3)n1`: the cytotoxicity at 70.5 h is -9.16%.
Consider `C[C@H]1CN2C[C@H](O)CC2CN1Cc1ccc2nccnc2c1` (some centres not stated), for which the cytotoxicity at 70.5 h was -1.32%.
Take `CN(C)CCNC(=O)c1sc2ccccc2c1C1CCC(CN)CC1` (configuration not stated): the cytotoxicity at 70.5 h stood at 8.65%.
Under `Cn1ccnc1CN(Cc1ccccn1)Cc1ccccc1Cl` stands 1.27%; under `Cc1ncc(CN(Cc2ccccn2)Cc2ccccc2Cl)n1C`, 11.6%.
